Source: the supplement of paper PMC3493320

Tested on: NCI-H295R
Experiment: maximal response (efficacy) relative to DMSO (0%) and doxorubicin (-100%); higher = less growth inhibition
Conditions: 48 h

Row | Compound | maximal response
1 | COCc1c(C(C)C)nc(C(C)C)c(/C=C/[C@@H](O)C[C@@H](O)CC(=O)[O-])c1-c1ccc(F)cc1.[Na+] | -23.2%
2 | Cl.Cl.O=C1c2c(O)ccc(O)c2C(=O)c2c(NCCNCCO)ccc(NCCNCCO)c21 | -59.3%
3 | CCC(NC(C)C)C(O)c1ccc(O)c(O)c1.CS(=O)(=O)O (stereo not drawn) | -36%
4 | O=[C@@](OC)[C@](C(N3)=C(C4)C2=C3C=CC=C2)([C@@]5=CC([C@]69[C@]8([H])[C@](C=CCN8CC9)(CC)[C@@H](OC(C)=O)[C@](O)([C@](OC)=O)[C@@]([H])6N7C)=C7C=C5OC)C[C@]1([H])C=C(CC)CN4C1.O=C(O)C(O)C(O)C(O)=O.O=C(O)C(O)C(O)C(O)=O | -56.6%
5 | CCOc1ccc(Cc2nccc3cc(OCC)c(OCC)cc23)cc1OCC.Cl | -39.5%
6 | CCCSc1ccc2[nH]c(NC(=O)OC)nc2c1 | -55.1%
7 | C[C@@H]1CCC2[C@@H](C)[C@@H](O)O[C@@H]3O[C@@]4(C)CC[C@@H]1[C@@]23OO4 (stereo partly drawn) | -56.4%
8 | CN(CC=CC#CC(C)(C)C)Cc1cccc2ccccc12 | -34.4%
9 | O=C2N(CCC8)[C@]8([H])[C@@](O[C@](C)1N[C@]([C@@H]6C=C([C@]7([H])N(C)C6)C5=C4C(C7)=CNC4=CC=C5)=O)(O)N([C@H]2CC3=CC=CC=C3)C1=O.O=C%10N(CCC%16)[C@]%16([H])[C@@](O[C@](C)9N[C@]([C@@H]%14C=C([C@]%15([H])N(C)C%14)C%13=C%12C(C%15)=CNC%12=CC=C%13)=O)(O)N([C@H]%10CC%11=CC=CC=C%11)C9=O.O[C@@H](C(O)=O)[C@@H](O)C([O-])=O | -31.1%
10 | CN1C(=O)C(O)N=C(c2ccccc2)c2cc(Cl)ccc21 (stereo not drawn) | -27.8%
11 | CN(C)CCCN1c2ccccc2CCc2ccc(Cl)cc21 | -31.2%
12 | Nc1ccc(O)c(C(=O)O)c1 | -20.8%
13 | CNCC/C=C2/C1=C(CCC3=C2C=CC=C3)C=CC=C1.Cl | -38.9%
14 | COCCOC(=O)C1=C(C)NC(C)=C(C(=O)OC/C=C/c2ccccc2)C1c1cccc([N+](=O)[O-])c1 (stereo not drawn) | -49.9%
15 | O=c1[nH]c2ccccc2n1CCCN1CCC(n2c(=O)[nH]c3cc(Cl)ccc32)CC1 | -25.4%
16 | O=C(CCCCCCC(=O)Nc1ccccc1)NO | -37.1%
17 | COc1c(C)c2c(c(O)c1CC=C(C)CCC(=O)OCCN1CCOCC1)C(=O)OC2 | -54.6%
18 | O=C(NC(=O)c1c(F)cccc1F)Nc1ccc(Cl)c(Oc2ncc(C(F)(F)F)cc2Cl)c1 | -39.7%
19 | O=C(N[C@@H](c1ccccc1)[C@@H](O)C(=O)O[C@H]3C[C@@]4(O)[C@@H](OC(=O)c2ccccc2)[C@@H]5[C@]6(OC(C)=O)CO[C@@H]6C[C@H](O)[C@@]5(C)C(=O)[C@H](OC(C)=O)\C(=C3/C)C4(C)C)c7ccccc7 | -55.9%

Row | Compound | maximal response
20 | CC[C@@]1(O)C(=O)OCc2c1cc1n(c2=O)Cc2cc3c(CN(C)C)c(O)ccc3nc2-1.Cl | -36.8%
21 | O=C1C(C(O)=C4C([C@@H](O[C@@H]5O[C@@H](C)[C@@H](O[C@@H]6CCCCO6)[C@@H](N)C5)C[C@@]([C@](CO)=O)(O)C4)=C3O)=C3C(C2=C1C=CC=C2OC)=O | -43%
22 | O=C1c2ccccc2C(=O)C1c1ccccc1 | -24.9%
23 | CN1CCC(CN2c3ccccc3Sc3ccccc32)C1.Cl (stereo not drawn) | -26.6%
24 | CCCCOc1ccc(CC(=O)NO)cc1 | -24%
25 | N[C@@H](Cc1cc(I)c(Oc2cc(I)c(O)c(I)c2)c(I)c1)C(=O)O | -25.6%
26 | Nc1ncnc2[nH]cnc12 | 30.9%
27 | COC(CNC(=O)c1ccccc1OCC(=O)O)[CH2][Hg][OH] (stereo not drawn) | 29%
28 | COc1cccc(N(C)C(=S)Oc2ccc3c(c2)CCCC3)n1 | -47.1%
29 | CC[C@@]1([C@@H]2O[C@@H]([C@H]3O[C@@](O)(CO)[C@H](C)C[C@@H]3C)C[C@@H]2C)CC[C@H]([C@]2(C)CC[C@]3(C[C@H](O)[C@@H](C)[C@@H]([C@@H](C)[C@@H](OC)C(C)C(=O)[O-])O3)O2)O1.[Na+] (stereo partly drawn) | -50.4%
30 | CC(=O)[O][Co][N]1/C2=C(/C)C3=N/C(=C\C4=NC(=C(/C)C5=N[C@H]([C@H](CC(N)=O)[C@@]5(C)CCC(=O)NCC(C)OP(=O)(O)O[C@H]5[C@@H](O)[C@@H](n6cnc7cc(C)c(C)cc76)O[C@@H]5CO)[C@@]1(C)[C@@](C)(CC(N)=O)[C@@H]2CCC(N)=O)/[C@@H](CCC(N)=O)C4(C)C)[C@@H](CCC(N)=O)[C@]3(C)CC(N)=O (stereo partly drawn) | -34.1%
31 | CC(C)OC(=O)Nc1ccc2[nH]c(-c3cscn3)nc2c1 | -56.3%
32 | CCOC(=O)[C@@H](CCc1ccccc1)N[C@@H]1CCc2ccccc2N(CC(=O)O)C1=O.Cl | -30.1%
33 | C[C@]12C/C(=C/O)C(=O)C[C@@H]1CC[C@@H]1[C@@H]2CC[C@@]2(C)[C@H]1CC[C@]2(C)O | -34.1%
34 | CN(Cc1ccc(C(C)(C)C)cc1)Cc1cccc2ccccc12 | -43.8%
35 | C[C@]12CCC(=O)C=C1[C@@H]1C[C@@H]1[C@H]1[C@@H]3[C@@H]4C[C@@H]4[C@@]4(CCC(=O)O4)[C@@]3(C)CC[C@@H]12 | -33.2%
36 | CC(C)(COP(=O)([O-])OP(=O)([O-])OC[C@H]1O[C@@H](n2cnc3c(N)ncnc32)[C@H](O)[C@@H]1OP(=O)([O-])O)C(O)C(=O)NCCC(=O)NCCS.O.O.[Li+].[Li+].[Li+] (stereo partly drawn) | 33%
37 | O=C2O[C@](C#CC3CC3)([C@](F)(F)F)C1=CC(Cl)=CC=C1N2 | -38%
38 | CCc1oc2ccccc2c1C(=O)c1cc(Br)c(O)c(Br)c1 | -59.3%
